pEC50: −log10 of the molar value. The source made the active and inactive calls. No cut-off for these calls is given here.
Assays:
[1] = Agonist activity at recombinant rat GluN1a/GluN2A receptor expressed in Xenopus laevis oocytes assessed as increase in glycine/glutamate-induced channel current at -40 mV holding potential by two-electrode voltage clamp method; format: cell-based, Oocyte; details: for pEC50: Rattus norvegicus, Oocyte, read-out: EC50
[2] = Agonist activity at recombinant rat GluN1a/GluN2B receptor expressed in Xenopus laevis oocytes assessed as increase in glycine/glutamate-induced channel current at -40 mV holding potential by two-electrode voltage clamp method; format: cell-based, Oocyte; details: for pEC50: Rattus norvegicus, Oocyte, read-out: EC50
[3] = Agonist activity at recombinant rat GluN1a/GluN2C receptor expressed in Xenopus laevis oocytes assessed as increase in glycine/glutamate-induced channel current at -40 mV holding potential by two-electrode voltage clamp method; format: cell-based, Oocyte; details: for pEC50: Rattus norvegicus, Oocyte, read-out: EC50
[4] = Agonist activity at recombinant rat GluN1a/GluN2D receptor expressed in Xenopus laevis oocytes assessed as increase in glycine/glutamate-induced channel current at -40 mV holding potential by two-electrode voltage clamp method; format: cell-based, Oocyte; details: for pEC50: Rattus norvegicus, Oocyte, read-out: EC50
Oocyte [5] = assay: Agonist activity at recombinant rat GluN1a/GluN2A receptor expressed in Xenopus laevis oocytes assessed as increase in glycine/glutamate-induced channel current at -40 mV holding potential by two-electrode voltage clamp method relative to glutamate; format: cell-based
[6] = Agonist activity at recombinant rat GluN1a/GluN2B receptor expressed in Xenopus laevis oocytes assessed as increase in glycine/glutamate-induced channel current at -40 mV holding potential by two-electrode voltage clamp method relative to control; format: cell-based, Oocyte; details: for Emax: Rattus norvegicus, Oocyte, read-out: Efficacy
Oocyte [7] = assay: Agonist activity at recombinant rat GluN1a/GluN2C receptor expressed in Xenopus laevis oocytes assessed as increase in glycine/glutamate-induced channel current at -40 mV holding potential by two-electrode voltage clamp method relative to control; format: cell-based
[8] = Agonist activity at recombinant rat GluN1a/GluN2D receptor expressed in Xenopus laevis oocytes assessed as increase in glycine/glutamate-induced channel current at -40 mV holding potential by two-electrode voltage clamp method relative to control; format: cell-based, Oocyte; details: for Emax: Rattus norvegicus, Oocyte, read-out: Efficacy

SMILES | EC50 ([1]; oocyte) | EC50 ([2]; oocyte) | EC50 ([3]; oocyte) | EC50 ([4]; oocyte) | Efficacy (Oocyte [5]) | Efficacy ([6]; rat, oocyte) | Efficacy (Oocyte [7]) | Efficacy ([8]; rat, oocyte) | pEC50 [1] | pEC50 [2] | pEC50 [3] | pEC50 [4] | Efficacy (Oocyte [5]; filed as agonist) [%] | Efficacy (Oocyte [7]; filed as agonist) [%] | Emax [6] [%] | Emax [8] [%]
N[C@H](C(=O)O)[C@@H]1C[C@]1(COCc1ccccc1)C(=O)O | Not Active | Not Active | Not Active | Not Active | inactive | Not Active | inactive | Not Active |  |  |  |  |  |  |  | 
C[C@]1(C(=O)O)C[C@H]1[C@H](N)C(=O)O |  |  |  |  |  |  |  |  | 6.59 | 7.10 | 6.96 | 7.52 | 99 | 90 | 123 | 111
C=CCOC[C@]1(C(=O)O)C[C@H]1[C@H](N)C(=O)O |  |  |  |  |  |  |  |  | 5.43 | 5.82 | 5.59 | 6.15 | 73.9 | 84.9 | 111 | 98.7

Continued, in another order:

EC50 ([1]; oocyte) | EC50 ([2]; oocyte) | EC50 ([3]; oocyte) | EC50 ([4]; oocyte) | Efficacy (Oocyte [5]) | Efficacy ([6]; rat, oocyte) | Efficacy (Oocyte [7]) | Efficacy ([8]; rat, oocyte) | pEC50 [1] | pEC50 [2] | pEC50 [3] | pEC50 [4] | Efficacy (Oocyte [5]; filed as agonist) [%] | Efficacy (Oocyte [7]; filed as agonist) [%] | SMILES | Emax [6] [%] | Emax [8] [%]
 |  |  |  |  |  |  |  | 5.52 | 5.96 | 5.72 | 6.40 | 91 | 98.2 | N[C@H](C(=O)O)[C@@H]1C[C@]1(CO)C(=O)O | 116 | 104
 |  |  |  |  |  |  |  | 5.35 | 6.05 | 5.57 | 6.40 | 81.7 | 62.7 | [N-]=[N+]=NC[C@]1(C(=O)O)C[C@H]1[C@H](N)C(=O)O | 92.6 | 76.9
 |  |  |  |  |  |  |  | 4.52 | 5.00 | 4.80 | 5.48 | 65 | 85 | CCCC[C@]1(C(=O)O)C[C@H]1[C@H](N)C(=O)O | 107 | 94
 |  |  |  |  |  |  |  | 5.32 | 6.00 | 5.60 | 6.52 | 87 | 86 | N[C@H](C(=O)O)[C@@H]1C[C@]1(CS)C(=O)O | 103 | 93

— ChEMBL document CHEMBL4732132, “Stereoselective synthesis of novel 2'-(S)-CCG-IV analogues as potent NMDA receptor agonists” (Eur J Med Chem, 2021)
